# Data taken from EP0629402A1, “Pharmaceutical compositions containing ipsapirone” (BAYER AG, priority 1993, dated 1994).
# Assay: Pharmacokinetic studies: bioavailability after oral administration
# Conditions: in vivo, nach oraler Gabe, read-out: Bioverfügbarkeit
# Excerpt: Als Ergebnis pharmakokinetischer Untersuchungen wurde festgestellt, daß Ipsapiron nach oraler Gabe eine Bioverfügbarkeit von nur 40 % aufweist. Ein erheblicher Wirkstoffanteil wird bereits präsystemisch metabolisiert und kann nicht bioverfügbar werden. Dies ist nachteilig, weil dieser Substanzverlust durch eine erhöhte Wirkstoffdosis ausgeglichen werden muß. Es resultieren große, für den Patienten schlecht schluckbare Arzneiformen und eine erhebliche Belastung des Patienten mit pharmakologisch inaktiven Ipsapiron-Metaboliten. Ferner nehmen mit sinkender Bioverfugbarkeit die interindividuellen Schwankungen im Plasmakonzentrationsverlauf zu und die Therapie wird unkalkulierbar.
compound,measurement,value
O=C1c2ccccc2S(=O)(=O)N1CCCCN1CCN(c2ncccn2)CC1 [Ipsapiron],bioavailability,40%
